# Data taken from US7332482B2, “Method for treating benign prostatic hyperplasia” (BioXell S.p.A., priority 2003, dated 2008).
# What was measured:
# 5α reductase type 2 = biological target: T1, 5α reductase type 2 (Homo sapiens, UniProt P31213); test: 5α reductase inhibition test in CHO 1829 cells; format: cell-based; details: 10^−9 to 10^−5 M
# T1 construct: host or cells: CHO 1829
# T1 sequence (P31213 1-254): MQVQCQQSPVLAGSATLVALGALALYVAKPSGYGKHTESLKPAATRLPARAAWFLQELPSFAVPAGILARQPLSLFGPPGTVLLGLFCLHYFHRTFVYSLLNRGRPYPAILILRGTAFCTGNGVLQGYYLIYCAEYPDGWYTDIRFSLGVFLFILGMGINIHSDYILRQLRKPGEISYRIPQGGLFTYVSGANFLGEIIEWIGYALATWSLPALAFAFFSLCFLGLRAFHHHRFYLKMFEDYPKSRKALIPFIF
# Protocol: CHO-1827 and CHO-1829 cells, transfected with 5α reductase type 1 (5αR-1) or type 2 (5αR-2), respectively (see Steers W. Urology (2001) 58 p 17-24), were maintained in Ham's F12 medium supplemented with 5% FCS.
# 5α reductase inhibition assay was performed using CHO 1827 cells, transfected with 5αR-1, or CHO 1829 cells, transfected with 5αR-2, as described (see Guarna A, et al. Journal of Medicinal Chemistry (2000) 43 3718-3735.). Compound A was added in a concentration range from 10^−9 to 10^−5 M, using finasteride as a control inhibitor in each experiment.
# rat ventral prostate = test: Ventral prostate growth in intact adult rats
# Text: Rat ventral prostate glands were rapidly excised out, weighed and quickly frozen in dry ice.
# [1] = Serum calcium measurement in rats; format: in vivo, rat; details: for calcemia: T-replaced castrated rats
# Protocol: Male Sprague Dawley rats (28 days old) were purchased from Charles River Laboratories (Calco, Lecco, Italy). All animal experimentation described was conducted in accord with accepted standards of animal care. Castration was performed via the scrotal route under ketamine/xylazine anaesthesia.
# Serum calcium levels were measured with a commercially available colorimetric assay (Sigma), according to the manufacturers' instructions.
# [2] = tested on: prostate volume in patients with BPH; test: Randomised double blind placebo controlled study in patients with BPH; format: in vivo, human
# Protocol: A randomised double blind placebo controlled parallel group study was performed to determine the effect of Compound A (1-alpha-fluoro-25-hydroxy-16,23E-diene-26,27-bishomo-20-epi-cholecalciferol) in patients with BPH.
# The principal inclusion criterion was that male patients be diagnosed with BPH and have prostate volume >40 ml as determined by transrectal ultrasound (TRUS).
# Statistical methods: primary efficacy analyses were planned on Per-Protocol (PP) Population and, as support, the same analyses were to be done on Intent-to-treat population. Patients evaluatable for the Per-Protocol analysis were all randomized patients compliant to protocol criteria who completed the whole course of study without major protocol violations and have valid assessments of prostate volume. Patients valid for intent-to-treat (ITT) population were all randomized patients who received at least one dose of trial medication and for whom the prostate volume at baseline and at 12 weeks visit were available.
# All patients randomized who took at least one dose of study drug were evaluated for safety analysis.
# The primary efficacy variable was the percentage change of prostate volume, measured by centralized MRI axial scanning. An ANOVA model was used for the analysis, with treatment and center as fixed effects.
# Study participants received 150 μg capsule (as per Example 4A with drug omitted in the case of placebo) once daily in the morning. The treatment period was 12 weeks.
# AR = biological target: T2, AR (Homo sapiens, UniProt P10275); test: [3H]R1881 binding assay on cytosol fractions of BPH fragments; design: from tissue; host or cells: human BPH prostatic tissue, cytosol fraction
# T2 sequence (P10275 1-920): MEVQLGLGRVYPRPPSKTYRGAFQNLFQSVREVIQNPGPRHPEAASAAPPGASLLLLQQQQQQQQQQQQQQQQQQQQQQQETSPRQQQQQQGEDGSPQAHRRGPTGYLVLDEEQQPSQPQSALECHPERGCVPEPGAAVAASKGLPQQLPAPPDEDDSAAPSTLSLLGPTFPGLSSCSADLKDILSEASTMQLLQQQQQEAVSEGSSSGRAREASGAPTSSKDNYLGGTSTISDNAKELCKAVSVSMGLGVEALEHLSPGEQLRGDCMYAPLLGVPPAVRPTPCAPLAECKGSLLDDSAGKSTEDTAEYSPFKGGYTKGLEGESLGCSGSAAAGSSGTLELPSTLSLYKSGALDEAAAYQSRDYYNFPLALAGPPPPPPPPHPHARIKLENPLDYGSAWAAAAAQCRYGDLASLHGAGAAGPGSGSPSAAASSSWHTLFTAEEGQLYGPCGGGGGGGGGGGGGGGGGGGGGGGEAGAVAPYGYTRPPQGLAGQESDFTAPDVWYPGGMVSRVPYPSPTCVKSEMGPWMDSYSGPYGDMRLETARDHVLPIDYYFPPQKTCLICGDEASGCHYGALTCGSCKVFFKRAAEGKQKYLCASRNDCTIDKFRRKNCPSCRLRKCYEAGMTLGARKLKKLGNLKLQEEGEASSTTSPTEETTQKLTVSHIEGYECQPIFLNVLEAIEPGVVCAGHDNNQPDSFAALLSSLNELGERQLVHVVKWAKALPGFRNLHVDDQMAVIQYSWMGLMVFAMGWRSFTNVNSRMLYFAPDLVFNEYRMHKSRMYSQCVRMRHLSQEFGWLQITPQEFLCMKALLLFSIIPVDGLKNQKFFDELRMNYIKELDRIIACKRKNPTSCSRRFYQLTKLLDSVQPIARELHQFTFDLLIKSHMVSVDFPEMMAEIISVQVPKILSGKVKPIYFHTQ
# Protocol: Prostatic tissues for binding assay were obtained from patients who underwent suprapubic adenomectomy for BPH. No pharmacological treatment was performed in the 3 months preceding surgery. After surgery, the tissues were immediately placed in liquid nitrogen and stored at −80° C. until processing.
# Protein content was determined by the known method of Bradford, using BSA as a standard.
smiles,measurement,setting,value
"C=C1/C(=C\C=C2/CCC[C@]3(C)C([C@@H](C)C/C=C/C(O)(CC)CC)=CC[C@@H]23)C[C@@H](O)C[C@@H]1F [Compound A, 1-alpha-fluoro-25-hydroxy-16,23E-diene-26,27-bishomo-20-epi-cholecalciferol]",interference with 5α reductase type 2,5α reductase type 2,did not interfere with either isoenzyme up to the micromolar range
same,maximal reduction of ventral prostate weight,"rat ventral prostate; one month oral, 300 μg/Kg",30%
same,effect on ventral prostate weight,"rat ventral prostate; one-month oral treatment, 10-300 μg/Kg",significantly decreased
same,calcemia,[1]; 10 μg/Kg,10.16 ± 0.24 mg/dL
same,calcemia,[1]; 30 μg/Kg,9.87 ± 0.15 mg/dL
same,calcemia,[1]; 100 μg/Kg,10.55 ± 0.18 mg/dL
same,calcemia,[1]; 300 μg/Kg,10.85 ± 0.1 mg/dL
same,other side effects,"[1]; all rat protocols, oral",No other discernible side effects
same,hypercalcemia,"[1]; all rat protocols, oral 10-300 μg/Kg",very modest hypercalcemia only at the highest dose tested
same,severe adverse events,[2]; 12 weeks,no severe adverse event was reported
same,proportion of responders,[2]; ITT population,28.8%
same,reduction of prostate volume vs placebo,"[2]; ITT population, axial scanning",more effective than placebo
same,mean difference of prostate volume vs baseline in non responder patients,[2]; PP population,3.93±0.8
same,mean difference of prostate volume vs baseline in unchanged patients,[2]; PP population,−0.35±2.3
same,mean reduction of prostate volume vs baseline in responder patients,[2]; PP population,−6.88±2.5
same,"percentage change of prostate volume, paraxial acquisition",[2]; PP population,−1.30±6.9%
same,"percentage change of prostate volume, transitional scanning",[2]; PP population,−0.22±9.6%
same,proportion of patients not responder,[2]; PP population,7.5%
same,proportion of responders,[2]; PP population,27.5%
same,proportion of unchanged patients,[2]; PP population,65%
same,"percentage change in prostate volume, axial scanning","[2]; PP population, 150 μg once daily, 12 weeks, MRI",−1.89±5.2%
same,"estimate of difference between treatments (Compound A minus placebo), percentage change in prostate volume","[2]; PP population, axial scanning, 95% confidence limit −9.54 and −4.94",−7.24
same,number of patients with adverse events related to treatment,[2]; safety population,3
same,patients with adverse events related to treatment,[2]; safety population,5.26%
same,number of patients with at least one adverse event,"[2]; safety population, 57 randomised",17
same,calciuria values over the course of the study,[2]; vs Placebo group,did not differ significantly
same,Kd,AR,> 100 µM
same,competition for [3H]-R1881 binding,"AR; human BPH homogenates, 10^−10-10^−4 M",did not compete
